Read-outs that look alike come from different tables or passages of the source.
Tests used:
[1] = Microsomal stability, rat liver microsomes; format: in vitro ADME; details: rat liver microsomes
[2] = system: cofilin phosphorylation in A7r5 cells; test: In-cell Western assay of cofilin phosphorylation in A7r5 cells; format: cell-based; details: A7R5, A7r5 cells; read-out: Cofilin Phosphorylation In A7r5 Cells (IC50)
Procedure: A7r5 (15,000 cells/well) were plated in a clear-bottomed Packard View black 96-well plate in 100 μl of 10% FBS DMEM:F12 medium and were allowed to attach overnight. The next day, the cells were serum starved in 1% FBS DMEM medium for 2 hr and then treated with the compounds for 1 hr. […] Next day, they were washed twice with PBS-0.1% Tween 20 (PBST) washing solution for 5 min each at room temperature on the orbital shaker, followed by one wash with Licor Blocking Buffer containing 0.05% Tween-20 for 5 min on the shaker at RT. The cells were then incubated with secondary antibody goat anti-rabbit IR800 (1:500 dilution) for 1 hr at RT in the dark (covered the plate with foil) in Licor blocking buffer-containing Tween-20. Following this, cells were washed twice with PBST for 5 min each at room temperature and then once with Licor blocking buffer-containing 0.05% Tween-20. The wells were then incubated with ToPro 3 stain (nucleic acid staining), diluted 1:4000 in Licor blocking buffer or Licor blocking buffer with 0.05% Tween-20 for 30 min at room temperature in the dark. Finally the plates were washed twice with PBS and analyzed using the Odyssey LICOR Infrared Scanner.

[3] = Plasma pharmacokinetics studies on rats; details: rats
Procedure: In vivo pharmacokinetics (PK) studies were conducted for selected compounds during the whole optimization at various stages in order to identify structural elements that are favorable for in vivo applications, and/or to evaluate the feasibility of optimized Limk inhibitors for animal studies.

P450 1A2 = target: T1, P450 1A2 (Homo sapiens, UniProt P05177)
T1 sequence (P05177 1-516): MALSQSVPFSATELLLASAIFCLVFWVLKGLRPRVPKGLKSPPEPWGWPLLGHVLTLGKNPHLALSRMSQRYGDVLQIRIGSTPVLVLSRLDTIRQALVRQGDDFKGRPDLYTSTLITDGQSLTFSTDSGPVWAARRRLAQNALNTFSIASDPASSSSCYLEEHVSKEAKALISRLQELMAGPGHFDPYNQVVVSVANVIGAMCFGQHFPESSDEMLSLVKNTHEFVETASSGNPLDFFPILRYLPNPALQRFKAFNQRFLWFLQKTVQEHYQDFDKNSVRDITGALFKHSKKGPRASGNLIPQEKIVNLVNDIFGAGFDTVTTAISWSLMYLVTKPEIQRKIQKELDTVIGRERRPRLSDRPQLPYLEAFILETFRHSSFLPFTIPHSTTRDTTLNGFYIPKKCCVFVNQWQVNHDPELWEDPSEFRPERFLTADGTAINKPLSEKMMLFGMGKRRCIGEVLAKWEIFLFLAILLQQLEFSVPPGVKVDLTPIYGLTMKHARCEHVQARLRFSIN

[4] = system: single-cycle HIV-1(Env) in CEM-SS T cells; format: cell-based; details: all time points
[5] = system: single-cycle HIV-1(Env) in CEM-SS T cells; test: Viral 2-LTR circles, real-time PCR; format: cell-based
HIV-1(NL4-3) = format: cell-based; details: non-toxic dosages
[6] = system: phosphorylation of PAK1/2; test: Western blot of PAK1/2 phosphorylation in CEM-SS T cells; format: cell-based, human
Procedure: FIG. 10. Chemical and Biochemical characterization of R10015. a, Chemical structure of R10015 and its docking into the crystal structure of LIMK1 (PDB ID 3S95, Chain A). […] CEM-SS T cells treated with R10015 (100 μM) for a time course, and the phosphorylation of cofilin, LIMK, and PAK1/2 were measured by Western Blot. Levels of each protein or GAPDH were also measured for loading control. d, R10015 inhibits Jurkat T cell chemotaxis in responding to SDF-1. e, R10015. f, R10015 inhibits chemotactic actin activity. Resting CD4 T cells were treated with R10015, and then exposed to SDF-1 for a time course. Actin polymerization were measured by FITC-phalloidin staining. g, the relative intensity of F-actin staining was also plotted.
One million cells were lysed in NuPAGE LDS Sample Buffer (Invitrogen), separated by SDS-PAGE, and then transferred onto nitrocellulose membranes (Invitrogen). The membranes were washed in TBST for 3 min and then blocked for 30 min at room temperature with Starting Block blocking buffer (Pierce). For probing with different antibodies, blots were incubated with rabbit anti-LIMK1 antibodies (Cell Signaling), with rabbit anti-p-coflin antibodies (Cell Signaling) or with a mouse anti-PAK1/2 antibody (Cell Signaling). These antibodies were diluted in 2.5% milk/TBST and rocked overnight at 4° C. […]

Limk1 = Limk1 (Homo sapiens, UniProt P53667); test: Limk1 biochemical assay (Reaction Biology, 10-dose IC50); parameters: His; purchased Reaction Biology Corporation; host or cells: insect cells
Limk1, sequence (P53667 285-638): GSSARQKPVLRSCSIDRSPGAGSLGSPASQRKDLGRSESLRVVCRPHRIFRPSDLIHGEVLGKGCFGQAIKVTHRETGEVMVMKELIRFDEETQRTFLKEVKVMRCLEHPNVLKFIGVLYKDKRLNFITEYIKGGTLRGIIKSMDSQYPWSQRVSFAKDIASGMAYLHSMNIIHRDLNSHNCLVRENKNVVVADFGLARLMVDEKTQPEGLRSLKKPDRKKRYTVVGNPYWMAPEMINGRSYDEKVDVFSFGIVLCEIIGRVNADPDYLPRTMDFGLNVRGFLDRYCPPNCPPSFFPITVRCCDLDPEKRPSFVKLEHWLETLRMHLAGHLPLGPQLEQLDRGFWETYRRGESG

Cc1c[nH]c2ncnc(-c3ccc(NC(=O)N(CCO)c4ccccc4)cc3)c12 [Compound 18b, 1-(2-Hydroxyethyl)-3-(4-(5-methyl-7H-pyrrolo[2,3-d]pyrimidin-4-yl)phenyl)-1-phenylurea]
Microsomal Stability t1/2 (min) Rat [1]: 30 min | IC50 [2]: 470 nM | AUC (iv) ([3]; iv dosing 1 mg/kg): 8.4 µM·h | Cl (iv) ([3]; iv dosing 1 mg/kg): 5.2 mL/min/kg | T1/2 (iv) ([3]; iv dosing 1 mg/kg): 2.2 h | Yd (iv) ([3]; iv dosing 1 mg/kg): 0.4 L/kg | F (%) (po) ([3]; po dosing 2 mg/kg): 36% | Cmax ([3]; read-out: Cmax (iv), iv dosing 1 mg/kg): 7.7 µM | P450 % inh. at 10 μM 1A2 (P450 1A2): −16/14/5/13%

COC(=O)c1ccc2[nH]c(C3CCN(c4ncnc5[nH]cc(Cl)c45)CC3)nc2c1 [Compound R10015, Methyl 2-(1-(5-chloro-7H-pyrrolo[2,3-d]pyrimidin-4-yl)piperidin-4-yl)-1Hbenzo[d]imidazole-5-carboxylate]
viral DNA synthesis [4]: inhibited | viral nuclear migration (2-LTR circles) [5]: inhibited | X4 viral infection of blood resting CD4 T cells (HIV-1(NL4-3)): inhibition | phosphorylation of PAK1/2 [6]: not inhibited | IC50 (Limk1; Table 8, read-out: LIMK1 IC50): 38 ± 5 nM | IC50 (Limk1; read-out: Limk1 IC50): ~38 nM
